# Test results: US4661513A, “3-aminopropoxyphenyl derivatives, their preparation and pharmaceutical compositions containing them” (Louis; William John, priority 1982, dated 1987)
# What was measured:
# [1] = test system: tracheal preparations (guinea pig trachea); experiment: in vitro tracheal preparations of the guinea pig, relaxation under isoproterenol
# [2] = test system: β-adrenoceptor (guinea pig atrium); experiment: spontaneously beating guinea pig atrium test: inhibition of the positive chronotropic isoprenaline effect; conditions: β-adrenoceptor blocking activity, vs isoprenaline
# [3] = at concentrations as high as 1×10^-4 M
Compound,effect in the trachea ([1]; at concentrations as high as 2×10^-5 M),Guinea pig atrium test Effective dose (molar concentration) [2],"effect in the trachea [1, 3]"
"COCCc1ccc(OCC(O)CNCCNC(=O)C2CCCOC2)cc1 (centres unmarked) [Example 1, 1-[4-(2-Methoxyethyl)phenoxy]-3-[2-(tetrahydropyran-3-ylcarbonylamino)ethylamino]-2-propanol]",no effect,,
COCCc1ccc(OCC(O)CNCCNC(=O)C2CCOCC2)cc1 (centres unmarked) [Example 3],,200 nM,
COCCOc1ccc(OCC(O)CNCCNC(=O)C2CCOCC2)cc1 (centres unmarked) [Example 6],,400 nM,no effect
COCCc1ccc(OCC(O)CNCCNC(=O)C2CCOCC2)c(C#N)c1 (centres unmarked) [Example 7],,80 nM,
COCCc1ccc(OCC(O)CNCCNC(=O)C2CCCOC2)c(Br)c1 (centres unmarked) [Example 8],,80 nM,
COCCc1ccc(OCC(O)CNCCNC(=O)C2CCCOC2)c(C#N)c1 (centres unmarked) [Example 9],,300 nM,
O=C(NCCNCC(O)COc1ccc(OCCOCC2CC2)cc1)C1CCCOC1 (centres unmarked) [Example 10],,,no effect
O=C(NCCNCC(O)COc1ccc(OCCOCC2CC2)cc1)C1CCOCC1 (centres unmarked) [Example 11],,200 nM,no effect
O=C(NCCCNCC(O)COc1ccc(OCCOCC2CC2)cc1)C1CCOCC1 (centres unmarked) [Example 12],,3000 nM,
